Assay results reported in article PMC6891286, “Towards the Development of an In vivo Chemical Probe for Cyclin G Associated Kinase (GAK)” (Molecules, 2019).
Where two headings read alike, the source gives them in different places.

Tests used:
[1] = metabolite identification in mouse liver microsomes
Experimental: After centrifugation, the supernatant was subjected to analysis by LCMS, and structures of metabolites were assigned on the basis of their molecular weight and fragmentation pattern.
Compounds were incubated at a concentration of 10 µM with mouse liver microsomes in the presence of an excess of NADPH.
1.1. General Numbering of Metabolites
The metabolites are numbered according to their retention times in the gradient LC-MS analysis in positive […]
ion mode. […] The M number increases […]
consecutively for metabolites with increasing retention time.
To avoid confusion, labelled retention times of a metabolite peak in different injections are the same, which may lead to mismatch between labelled retention time and actual retention time.
General Strategy for Metabolite Identification
The vehicle control and study samples were injected into LC-MS with gradient elution using a Q1 scan method. Searching for potential metabolites was then performed using LightSight software (Applied Biosystems/MDS Sciex) by comparing a total ion current chromatogram of Q1 scan from a study sample with a chromatogram from the corresponding vehicle control sample. The study sample was then injected again to obtain the product ion spectra of potential metabolites using product ion scan methods. The fragmentation patterns of the potential metabolites were then compared to the fragmentation of the parent compound to elucidate the structures of the metabolites.
The assignment of fragments is shown
2.2. Identification of Metabolites in Mouse Liver Microsomal Incubation

GAK [2] = target: T1, GAK (Homo sapiens, UniProt O14976); conditions: TR-FRET assay; read-out: Biochemical GAK Ki; cited from earlier work
T1 sequence (O14976 1-1311): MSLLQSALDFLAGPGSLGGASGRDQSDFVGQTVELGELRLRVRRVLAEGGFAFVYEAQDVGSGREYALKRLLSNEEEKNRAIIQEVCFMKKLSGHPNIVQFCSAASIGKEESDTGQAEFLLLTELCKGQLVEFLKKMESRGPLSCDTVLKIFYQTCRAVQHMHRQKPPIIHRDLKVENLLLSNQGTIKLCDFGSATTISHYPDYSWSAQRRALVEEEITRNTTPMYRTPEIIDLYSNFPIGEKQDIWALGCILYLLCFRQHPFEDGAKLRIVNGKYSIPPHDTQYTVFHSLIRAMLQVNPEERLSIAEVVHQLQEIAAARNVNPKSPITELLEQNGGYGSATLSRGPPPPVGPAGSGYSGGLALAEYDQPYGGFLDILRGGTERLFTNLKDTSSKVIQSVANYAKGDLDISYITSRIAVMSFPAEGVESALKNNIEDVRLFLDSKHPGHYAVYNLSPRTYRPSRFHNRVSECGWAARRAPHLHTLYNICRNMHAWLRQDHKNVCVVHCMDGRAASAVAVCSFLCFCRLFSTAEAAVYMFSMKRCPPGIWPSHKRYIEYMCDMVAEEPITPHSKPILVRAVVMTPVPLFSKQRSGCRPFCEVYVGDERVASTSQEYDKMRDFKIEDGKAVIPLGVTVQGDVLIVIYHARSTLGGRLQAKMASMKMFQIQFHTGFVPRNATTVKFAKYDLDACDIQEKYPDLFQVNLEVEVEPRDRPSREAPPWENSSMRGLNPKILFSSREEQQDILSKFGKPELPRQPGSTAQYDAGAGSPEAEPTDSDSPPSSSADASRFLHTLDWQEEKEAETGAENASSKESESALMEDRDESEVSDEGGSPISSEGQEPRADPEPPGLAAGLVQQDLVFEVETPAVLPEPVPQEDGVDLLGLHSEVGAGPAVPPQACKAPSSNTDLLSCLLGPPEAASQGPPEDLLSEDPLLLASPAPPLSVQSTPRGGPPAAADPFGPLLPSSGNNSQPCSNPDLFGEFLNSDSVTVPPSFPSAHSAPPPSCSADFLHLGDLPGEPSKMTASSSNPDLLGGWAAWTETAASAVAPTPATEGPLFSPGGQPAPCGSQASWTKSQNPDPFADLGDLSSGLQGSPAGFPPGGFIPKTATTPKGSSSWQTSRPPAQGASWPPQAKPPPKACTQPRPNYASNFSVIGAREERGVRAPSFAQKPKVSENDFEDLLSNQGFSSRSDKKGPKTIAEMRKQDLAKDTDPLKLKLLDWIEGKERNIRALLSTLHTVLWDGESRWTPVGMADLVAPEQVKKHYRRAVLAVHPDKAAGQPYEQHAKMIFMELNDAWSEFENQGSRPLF

[3] = pharmacokinetic profiling in mice, oral dosing; format: in vivo; conditions: C57BL/6 mice, 10 mg/kg po
Experimental: Pharmacokinetic profiling was performed by SAI Life Sciences (Hyderabad, India). […] Prior approval of the Institutional Animal Ethics Committee (IAEC) was obtained before initiation of the study. Healthy male C57BL/6 mice (8–12 weeks old) weighing between 20 and 35 g were procured from (Envigo Research Private Ltd., City, Hyderabad, India). Three mice were housed in each cage. […] Temperature and humidity were recorded by an automatically controlled data logger system. All animals were provided a laboratory rodent diet (Envigo Research Private Ltd., Hyderabad, India). Reverse osmosis water treated with ultraviolet light was provided ad libitum. Eighteen male mice were weighed and divided in to two groups (Group 1 and Group 2), with nine mice in each group. […] The dosing volume administered was 10 mL/kg for the oral route. […] Plasma samples were separated by centrifugation at 4000 rpm for 10 min and stored below −70 °C until bioanalysis. […] The plasma concentration-time data were then used for the pharmacokinetic analysis. A non-compartmental analysis module in Phoenix WinNonlin (Version 6.3, Certara USA Inc., Raleigh, NC, USA) was used to assess the pharmacokinetic parameters. Maximum concentration (Cmax) and time to reach the maximum concentration (Tmax) were the observed values. The areas under the concentration time curve (AUClast and AUCinf) were calculated by linear trapezoidal rule.

GAK [4] = target: T1, GAK; conditions: nanoBRET; read-out: Live Cell GAK IC50; cited from earlier work
GAK [5] = target: T1, GAK; test: live cell NanoBRET target engagement assay; format: cell-based; conditions: nanoBRET; mean average, n = 2
[6] = male, C57BL/6, mouse, plasma, po, 10 mg/kg, 2 h pretreat 50 mpk ABT
[7] = male, C57BL/6, mouse, plasma, po, 10 mg/kg, without ABT

| Compound | Primary Metabolism Site [1] | Ki (GAK [2]) | fold higher exposure with ABT pretreatment ([3]; 2 h pre-treatment with 50 mg/kg ABT vs without) | time plasma concentration sustained at 2-fold above the cellular IC50 ([3]; pretreatment with ABT) | AUC(0-inf) [3, 6] | Tmax [3, 6] | Cmax ([3]; male, C57BL/6, mouse, plasma, po, 10 mg/kg, 2 h pretreat 50 mpk ABT, read-out: Cmax) | AUC(0-inf) [3, 7] | Tmax [3, 7] | half-life ([3]; male, mouse, plasma, without ABT, read-out: T1/2 in mice) | IC50 (GAK [4]) | IC50 (GAK [5]) |
| --- | --- | --- | --- | --- | --- | --- | --- | --- | --- | --- | --- | --- |
| COc1cc2nccc(Nc3cc(OC)c(OC)c(OC)c3)c2cc1OC [Compound 8] | Aniline | 0.54 nM | 8 fold | > 8 h | 569 ng·h/mL | 2 h | 107 ng/mL | 71 ng·h/mL | 1 h | < 1 h | 25 nM |  |
| Brc1ccc2nccc(Nc3ccc4cn[nH]c4c3)c2c1 [Compound 35, 6-Bromo-N-(1H-indazol-6-yl)quinolin-4-amine] |  |  |  |  |  |  |  |  |  |  |  | 1400 nM |
